The conditions of data set [1]: 92.3 kPa, Liquid; for viscosity: Concentric cylinders viscometry; for speed of sound: Frequency=3 MHz, Single path-length method; for mass density: Vibrating tube method.
Data set [2] is described as follows: xn = mol fraction of the nth substance listed. The settings on record: 92.3 kPa, Liquid, x2 = 0; for viscosity: Concentric cylinders viscometry; for mass density: Vibrating tube method.

± gives the expanded uncertainty stated by the source.

`OCCO` [1,2-ethanediol]: the viscosity in data set [1] (293.15 K) turned out to be 20.61 ± 2.9 mPa·s; in data set [1] (298.15 K), 16.22 ± 2.3 mPa·s; in data set [1] (303.15 K), 13.87 ± 1.9 mPa·s; in data set [1] (308.15 K) it was 11.48 ± 1.6 mPa·s. The speed of sound in data set [1] (293.15 K) amounted to 1666.5 ± 1.8 m/s; in data set [1] (298.15 K) it was 1654.7 ± 1.8 m/s; in data set [1] (303.15 K), 1642.9 ± 1.8 m/s; in data set [1] (308.15 K), 1631.2 ± 1.8 m/s. Besides, the mass density is listed as 1113.72 ± 3 kg/m3 in data set [1] (293.15 K) and 1106.71 ± 3 kg/m3 in data set [1] (303.15 K).

As to `OCCOCCO` [diethylene glycol], the viscosity in data set [1] (293.15 K) turned out to be 35.89 ± 5 mPa·s; in data set [1] (298.15 K) it was 27.67 ± 3.9 mPa·s; in data set [1] (303.15 K), 22.48 ± 3.1 mPa·s; in data set [1] (308.15 K), 18.27 ± 2.6 mPa·s. Also, the speed of sound was 1591 ± 2 m/s in data set [1] (293.15 K), 1579.1 ± 2 m/s in data set [1] (298.15 K), 1567.2 ± 2 m/s in data set [1] (303.15 K) and 1555.3 ± 2 m/s in data set [1] (308.15 K). The mass density in data set [1] (293.15 K) is reported as 1116.73 ± 3 kg/m3; in data set [1] (298.15 K), 1113.17 ± 3 kg/m3; in data set [1] (303.15 K) it was 1109.6 ± 3 kg/m3; in data set [1] (308.15 K), 1106.01 ± 3 kg/m3.

Take `CCO` [ethanol]: the viscosity in data set [1] (293.15 K) was 1.202 ± 0.17 mPa·s; in data set [1] (298.15 K), 1.091 ± 0.15 mPa·s; in data set [1] (303.15 K), 0.992 ± 0.14 mPa·s; in data set [1] (308.15 K) it was 0.9039 ± 0.13 mPa·s. In addition, the speed of sound is listed as 1160.7 ± 1.8 m/s in data set [1] (293.15 K), 1143.5 ± 1.8 m/s in data set [1] (298.15 K), 1126.4 ± 1.8 m/s in data set [1] (303.15 K) and 1109.6 ± 1.8 m/s in data set [1] (308.15 K). Besides, the mass density in data set [1] (293.15 K) turned out to be 789.547 ± 3 kg/m3; in data set [1] (298.15 K), 785.26 ± 3 kg/m3; in data set [1] (303.15 K) it was 780.941 ± 3 kg/m3; in data set [1] (308.15 K), 776.592 ± 3 kg/m3.

For `OCC(O)CO` [glycerol], the viscosity in data set [1] (293.15 K) is given as 1408.4 ± 210 mPa·s; in data set [1] (298.15 K) it was 900.44 ± 130 mPa·s; in data set [1] (303.15 K), 593.09 ± 85 mPa·s; in data set [1] (308.15 K) it was 401.76 ± 57 mPa·s. Besides, the speed of sound in data set [1] (293.15 K) came to 1925.5 ± 1.8 m/s; in data set [1] (298.15 K), 1911.9 ± 1.8 m/s; in data set [1] (303.15 K) it was 1899.6 ± 1.8 m/s; in data set [1] (308.15 K) it was 1888.1 ± 1.8 m/s. Moreover, the mass density in data set [1] (293.15 K) was found to be 1260.73 ± 3 kg/m3; in data set [1] (298.15 K) it was 1257.65 ± 3 kg/m3; in data set [1] (303.15 K), 1254.48 ± 3 kg/m3; in data set [1] (308.15 K), 1251.38 ± 3 kg/m3.

Turning to `OCCOCCOCCO` [triethylene glycol], the viscosity in data set [1] (293.15 K) was found to be 48.06 ± 6.7 mPa·s; in data set [1] (298.15 K), 36.88 ± 5.2 mPa·s; in data set [1] (303.15 K) it was 29.59 ± 4.1 mPa·s; in data set [1] (308.15 K), 23.72 ± 3.3 mPa·s. In addition, the speed of sound in data set [1] (293.15 K) was 1626.8 ± 2 m/s; in data set [1] (298.15 K), 1611.6 ± 2 m/s; in data set [1] (303.15 K) it was 1596.6 ± 2 m/s; in data set [1] (308.15 K) it was 1581.7 ± 2 m/s. Moreover, the mass density came to 1123.48 ± 3 kg/m3 in data set [1] (293.15 K), 1119.59 ± 3 kg/m3 in data set [1] (298.15 K), 1115.7 ± 3 kg/m3 in data set [1] (303.15 K) and 1111.81 ± 3 kg/m3 in data set [1] (308.15 K).

Consider `O` [water], for which the viscosity in data set [1] (293.15 K) was 1.067 ± 0.15 mPa·s; in data set [1] (298.15 K), 0.8969 ± 0.13 mPa·s; in data set [1] (303.15 K), 0.8385 ± 0.12 mPa·s; in data set [1] (308.15 K), 0.7589 ± 0.11 mPa·s. The mass density in data set [1] (293.15 K) is 998.429 ± 3 kg/m3; in data set [1] (298.15 K), 997.267 ± 3 kg/m3; in data set [1] (303.15 K), 995.867 ± 3 kg/m3; in data set [1] (308.15 K), 994.252 ± 3 kg/m3.

Consider `O` [water] + CCO, for which the viscosity in data set [2] (293.15 K) is listed as 1.067 ± 0.15 mPa·s; in data set [2] (298.15 K) it was 0.8969 ± 0.13 mPa·s; in data set [2] (303.15 K), 0.8385 ± 0.12 mPa·s; in data set [2] (308.15 K), 0.7589 ± 0.11 mPa·s. Also, the mass density in data set [2] (293.15 K) stood at 998.429 ± 3 kg/m3; in data set [2] (298.15 K), 997.267 ± 3 kg/m3; in data set [2] (303.15 K), 995.867 ± 3 kg/m3; in data set [2] (308.15 K), 994.252 ± 3 kg/m3.

As for `O` [water] + OCC(O)CO, the viscosity worked out at 1.067 ± 0.15 mPa·s in data set [2] (293.15 K), 0.8969 ± 0.13 mPa·s in data set [2] (298.15 K), 0.8385 ± 0.12 mPa·s in data set [2] (303.15 K) and 0.7589 ± 0.11 mPa·s in data set [2] (308.15 K). Besides, the mass density in data set [2] (293.15 K) amounted to 998.429 ± 3 kg/m3; in data set [2] (298.15 K), 997.267 ± 3 kg/m3; in data set [2] (303.15 K) it was 995.867 ± 3 kg/m3; in data set [2] (308.15 K) it was 994.252 ± 3 kg/m3.

As for `O` [water] + OCCO, the viscosity is given as 1.067 ± 0.15 mPa·s in data set [2] (293.15 K), 0.8969 ± 0.13 mPa·s in data set [2] (298.15 K), 0.8385 ± 0.12 mPa·s in data set [2] (303.15 K) and 0.7589 ± 0.11 mPa·s in data set [2] (308.15 K). Moreover, the mass density in data set [2] (293.15 K) was found to be 998.429 ± 3 kg/m3; in data set [2] (298.15 K) it was 997.267 ± 3 kg/m3; in data set [2] (303.15 K), 995.867 ± 3 kg/m3; in data set [2] (308.15 K), 994.252 ± 3 kg/m3.

As to `O` [water] + OCCOCCO, the viscosity turned out to be 1.067 ± 0.15 mPa·s in data set [2] (293.15 K), 0.8969 ± 0.13 mPa·s in data set [2] (298.15 K), 0.8385 ± 0.12 mPa·s in data set [2] (303.15 K) and 0.7589 ± 0.11 mPa·s in data set [2] (308.15 K). For the same compound, the mass density in data set [2] (293.15 K) is 998.429 ± 3 kg/m3; in data set [2] (298.15 K), 997.267 ± 3 kg/m3; in data set [2] (303.15 K) it was 995.867 ± 3 kg/m3; in data set [2] (308.15 K) it was 994.252 ± 3 kg/m3.

In the case of `O` [water] + OCCOCCOCCO, the viscosity in data set [2] (293.15 K) is reported as 1.067 ± 0.15 mPa·s; in data set [2] (298.15 K) it was 0.8969 ± 0.13 mPa·s; in data set [2] (303.15 K), 0.8385 ± 0.12 mPa·s; in data set [2] (308.15 K) it was 0.7589 ± 0.11 mPa·s. For the same compound, the mass density came out at 998.429 ± 3 kg/m3 in data set [2] (293.15 K), 997.267 ± 3 kg/m3 in data set [2] (298.15 K), 995.867 ± 3 kg/m3 in data set [2] (303.15 K) and 994.252 ± 3 kg/m3 in data set [2] (308.15 K).

In general, viscosity refers to the internal friction of a fluid under shear. The speed of sound is how fast a sound wave travels through the sample. As usually defined, the mass density is mass per unit of volume.

Values taken from the NIST ThermoML archive (doi:10.1016/j.jct.2018.02.022).
